{"source": "patent US20160368943A1", "about": "“SUBSTITUTED PURINE COMPOUNDS” (EPIZYME, INC., priority 2013, published 2016)", "key": {"[1]": {"assay": "Liver microsome stability, mouse", "format": "in vitro ADME", "protocol": "The final incubation volume was 50 μL. Control incubations were included for each species where 0.1 M phosphate buffer pH 7.4 was added instead of NADPH (minus NADPH). Two control compounds were included for each species. […] The control (minus NADPH) was incubated for 45 minutes only. The reactions were stopped by transferring 25 μL of incubate to 50 μL methanol at the appropriate time points. The incubation plates were centrifuged at 2,500 rpm for 20 minutes at 4° C. to aid protein precipitation. Experimental half-lives were transformed to the corresponding intrinsic clearance values and subsequently scaled to predicted in vivo clearance values, using the well-stirred model as previously described (Houston, Biochemical Pharmacology 47(9): 1469-1479, 1994; Obach, Drug Metabolism and Disposition 27(11): 1350-1359, 1999), with appropriate species-specific scaling factors (Barter et al., Current Drug Metabolism 8(1): 33-45, 2007)."}, "[2]": {"assay": "Pharmacokinetic study in rat", "format": "in vivo, Sprague-Dawley rat", "protocol": "In the IV bolus study, 1 mg/kg doses prepared in 0.4% HPBCD in saline were administered via foot dorsal vein injection. At each timepoint, 150 μL of blood was collected via tail vein into EDTA-K2 tubes. The blood samples were maintained in wet ice initially and centrifuged to obtain plasma (2000 g, 4° C., 5 minutes) within 15 minutes post sampling. In the PO study, doses prepared in 10% Ethanol:5% Solutol HS15:85% (5% of dextrose in water) were administered by oral gavage. Samples were collected as described above. In the IV infusion study, doses were prepared in 10% PEG400 in 0.9% saline and administered into the femoral vein, at a dose of 4.7 mg/kg/day for 7 days. 500 μL of blood was collected by jugular venipuncture at timepoints over 7 days and placed on crushed wet ice until centrifugation, which was carried out as soon as practical. The samples were centrifuged for 10 minutes at 4° C. at 2700 rpm. The resultant plasma was separated and frozen immediately over dry ice for LC-MS/MS analysis. […] Typically, samples were injected onto an LC-MS/MS system using a Waters BEH Phenyl column. The aqueous mobile phase was water with 0.1% NH4OH (A), and the organic mobile phase was acetonitrile with 0.1% NH4OH (B). The gradient was as follows: 37% B for the first 0.2 min, increased to 44% B from 0.2 to 0.6 min, maintained at 44% B for 0.5 min, and decreased to 37% B within 0.05 min. The injection volume was 2 uL, and the total run time was 1.5 min with a flow rate of 0.6 mL/min. […] The ionization was conducted in the positive ion mode using the MRM transition [M+H]+m/z 563.5 parent ion to m/z 326.3 daughter ion, incorporating a turbo-ionspray interface. Eight to ten calibration standards were prepared in blank plasma of the relevant species providing a typical standard curve concentration range of 5-500 ng/mL. Pharmacokinetic parameters were calculated by noncompartmental methods using WinNonlin (version 5.3; Pharsight, St. Louis, Mo.). Parameters are presented as mean±S.D."}, "[3]": {"assay": "Plasma stability, rat", "format": "in vitro ADME", "conditions": "Sprague Dawley, pooled plasma, 37° C., read-out: Half-life in ex vivo blood plasma", "text": "Samples were quenched in methanol and analyzed by LC-MS/MS analysis."}, "[4]": {"assay": "Metabolite profiling in liver microsomes with NADPH and UDPGA, mouse", "format": "in vitro ADME", "conditions": "Compound A 10 μM, 20 min", "protocol": "Compound A was incubated with liver microsomes of various species (mouse, rat, dog or human). […] For all liver microsomal incubations, samples were taken at 0 and 20 minutes. All samples were quenched by using acetonitrile/methanol solution and analyzed using an LC-MS/MS Q-Trap system (AB Sciex, Framingham, Mass.).\nThe corresponding product ion tandem mass spectra of Compound A and its metabolites were obtained by using enhanced product ion (EPI) scans during positive ion electrospray. The possible chemical structures of the metabolites were deduced based on their MS1 and MS2 spectra."}, "[5]": {"assay": "Pharmacokinetic study in mouse", "format": "in vivo, CD-1 mouse", "protocol": "Oral and IV doses were administered by oral gavage, or by tail vein injection in a 10% ethanol and 90% saline vehicle, respectively. For PO dosing, samples were taken at 0.167, 0.5, 1, 2, 4, 6 and 24 h p.d. For IV administration, samples were taken at 0.05, 0.167, 0.5, 1, 2, 4, 6 and 24 h p.d. Blood samples were centrifuged at 4° C. (2000 g, 5 minutes) to obtain plasma within 15 minutes after sample collection. The levels of Compound A were quantitated in mouse plasma by LC-MS/MS analysis. […] Typically, samples were injected onto an LC-MS/MS system using a Waters BEH Phenyl column. The aqueous mobile phase was water with 0.1% NH4OH (A), and the organic mobile phase was acetonitrile with 0.1% NH4OH (B). The gradient was as follows: 37% B for the first 0.2 min, increased to 44% B from 0.2 to 0.6 min, maintained at 44% B for 0.5 min, and decreased to 37% B within 0.05 min. The injection volume was 2 uL, and the total run time was 1.5 min with a flow rate of 0.6 mL/min. […] The ionization was conducted in the positive ion mode using the MRM transition [M+H]+m/z 563.5 parent ion to m/z 326.3 daughter ion, incorporating a turbo-ionspray interface. Eight to ten calibration standards were prepared in blank plasma of the relevant species providing a typical standard curve concentration range of 5-500 ng/mL. Pharmacokinetic parameters were calculated by noncompartmental methods using WinNonlin (version 5.3; Pharsight, St. Louis, Mo.). Parameters are presented as mean±S.D."}, "[6]": {"conditions": "male, Sprague-Dawley, plasma, SD rat, IV bolus, 1 mg/kg"}, "[7]": {"conditions": "male, Sprague-Dawley, plasma, SD rat, IV infusion, 4.7 mg/kg/day for 7 days"}, "[8]": {"conditions": "male, Sprague-Dawley, plasma, SD rat, PO, 10 mg/kg"}, "[9]": {"conditions": "male, CD-1, mouse, plasma, iv, 5 mg/kg, IV bolus"}, "[10]": {"conditions": "male, plasma, CD-1 mouse, IV bolus, 5 mg/kg"}, "[11]": {"conditions": "male, plasma, CD-1 mouse, PO, 20 mg/kg"}}, "data": [{"smiles": "CC(C)N(C[C@H]1O[C@@H](n2cnc3c(N)ncnc32)[C@H](O)[C@@H]1O)[C@H]1C[C@@H](CCc2nc3cc(C(C)(C)C)ccc3[nH]2)C1", "note": "[Compound A, (2R,3R,4S,5R)-2-(6-amino-9H-purin-9-yl)-5-((((1r,3S)-3-(2-(5-(tert-butyl)-1H-benzo[d]imidazol-2-yl)ethyl)cyclobutyl)(isopropyl)amino)methyl)tetrahydrofuran-3,4-diol]", "values": [{"measurement": "microsomal CLint at 3 μM", "setting": "[1]; liver microsomes, pH 7.4, NADPH, 3 μM", "result": 150, "unit": "µL/min/mg"}, {"measurement": "Scaled Hepatic CL from liver microsomes", "setting": "[1]; well-stirred model", "result": 78, "unit": "mL/min/kg"}, {"measurement": "CL", "setting": "[2]; SD rat, IV bolus, 1 mg/kg", "result": "67.8 ± 5.3", "unit": "mL/min/kg"}, {"measurement": "t1/2", "setting": "[2]; SD rat, IV bolus, 1 mg/kg", "result": "224 ± 61.8", "unit": "min"}, {"measurement": "time to steady state", "setting": "[2]; SD rat, IV infusion, 4.7 mg/kg/day", "result": "≤ 1", "unit": "h"}, {"measurement": "F", "setting": "[2]; SD rat, PO, 10 mg/kg", "result": "<1", "unit": "%"}, {"measurement": "AUC(0-inf)", "setting": "[2]; [6]", "result": "0.44 ± 0.03", "unit": "µM·h"}, {"measurement": "AUC(0-t)", "setting": "[2]; [6]", "result": "0.43 ± 0.03", "unit": "µM·h"}, {"measurement": "Cmax", "setting": "[2]; [6]", "result": "2040 ± 230", "unit": "nM"}, {"measurement": "MRT", "setting": "[2]; [6]", "result": "24.6 ± 6", "unit": "min"}, {"measurement": "Tmax", "setting": "[2]; [6]", "result": 3, "unit": "min"}, {"measurement": "AUC(0-inf)", "setting": "[2]; [7]", "result": 12.5, "unit": "µM·h"}, {"measurement": "AUC(0-t)", "setting": "[2]; [7]", "result": 12.5, "unit": "µM·h"}, {"measurement": "Cmax", "setting": "[2]; [7]", "result": 130, "unit": "nM"}, {"measurement": "Tmax", "setting": "[2]; [7]", "result": 240, "unit": "min"}, {"measurement": "concentration at 7 days", "setting": "[2]; male, Sprague-Dawley, plasma, SD rat, IV infusion, 4.7 mg/kg/day for 7 days, read-out: average steady state concentration", "result": 78, "unit": "nM"}, {"measurement": "Cmax", "setting": "[2]; [8]", "result": 0.7, "unit": "nM"}, {"measurement": "Tmax", "setting": "[2]; [8]", "result": 15, "unit": "min"}, {"measurement": "half-life", "setting": "[2]; male, Sprague-Dawley, rat, plasma, iv, 1 mg/kg, SD rat, IV bolus", "result": 222, "unit": "min"}, {"measurement": "clearance", "setting": "[2]; male, Sprague-Dawley, rat, plasma, iv, 1 mg/kg, SD rat, IV bolus, 1 mg/kg, read-out: CL", "result": 68, "unit": "mL/min/kg"}, {"measurement": "Vd", "setting": "[2]; male, Sprague-Dawley, rat, plasma, iv, 1 mg/kg, SD rat, IV bolus, 1 mg/kg, read-out: VDss", "result": 1.66, "unit": "L/kg"}, {"measurement": "Vd", "setting": "[2]; male, Sprague-Dawley, rat, plasma, iv, 1 mg/kg, rat, read-out: Unbound VDss", "result": 6.1, "unit": "L/kg"}, {"measurement": "clearance", "setting": "[2]; male, Sprague-Dawley, rat, plasma, iv, 4.7 mg/kg/day, SD rat, IV infusion, 4.7 mg/kg/day, Css 78 nM, read-out: CL estimate from IV infusion (dose rate divided by Css)", "result": 74, "unit": "mL/min/kg"}, {"measurement": "oral bioavailability (in words)", "setting": "[2]; rat, PO", "result": "low and negligible"}, {"measurement": "half-life at 1 μM", "setting": "[3]", "result": "> 120", "unit": "min"}, {"measurement": "Abundance based on UV spectra", "setting": "[4]", "result": 25.4, "unit": "%"}, {"measurement": "CL", "setting": "[5]; CD-1 mouse, IV bolus, 5 mg/kg", "result": "76.7 ± 11.5", "unit": "mL/min/kg"}, {"measurement": "t1/2", "setting": "[5]; CD-1 mouse, IV bolus, 5 mg/kg", "result": "68.4 ± 21", "unit": "min"}, {"measurement": "F", "setting": "[5]; CD-1 mouse, PO, 20 mg/kg", "result": "<1", "unit": "%"}, {"measurement": "Vd", "setting": "[5]; male, CD-1, mouse, plasma, iv, 5 mg/kg, CD-1 mouse, IV bolus, 5 mg/kg, read-out: VDss", "result": 1.58, "unit": "L/kg"}, {"measurement": "clearance", "setting": "[5]; [9]", "result": 77, "unit": "mL/min/kg"}, {"measurement": "half-life", "setting": "[5]; [9]", "result": 66, "unit": "min"}, {"measurement": "Vd", "setting": "[5]; male, CD-1, mouse, plasma, iv, 5 mg/kg, mouse, read-out: Unbound VDss", "result": 11.4, "unit": "L/kg"}, {"measurement": "AUC(0-inf)", "setting": "[5]; [10]", "result": "1.96 ± 0.3", "unit": "µM·h"}, {"measurement": "AUC(0-t)", "setting": "[5]; [10]", "result": "1.95 ± 0.28", "unit": "µM·h"}, {"measurement": "Cmax", "setting": "[5]; [10]", "result": "7990 ± 1900", "unit": "nM"}, {"measurement": "MRT", "setting": "[5]; [10]", "result": "21 ± 3.6", "unit": "min"}, {"measurement": "Tmax", "setting": "[5]; [10]", "result": 3, "unit": "min"}, {"measurement": "AUC(0-t)", "setting": "[5]; [11]", "result": 0.0014, "unit": "µM·h"}, {"measurement": "Cmax", "setting": "[5]; [11]", "result": 1.9, "unit": "nM"}, {"measurement": "Tmax", "setting": "[5]; [11]", "result": 30, "unit": "min"}, {"measurement": "oral bioavailability (in words)", "setting": "[5]; mouse, PO", "result": "low and negligible"}]}]}
